# In the supplement of paper PMC8960247:
# Counter-ions that a name gives are not always drawn. ± gives the standard error.
# Legend:
# 621-102 (TSC2-deficient) = test: relative viability vs DMSO; higher = less cytotoxic; settings: serum: 10% FBS, 72 h
# 621-103 (TSC2-rescued) = test: as above; settings: serum: 10% FBS, 72 h
# 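Note: immortalized renal angiomyolipoma cells stably carrying empty vector or TSC2, dosed in 384-well plates in DMEM, viability normalized to vehicle-treated wells within each plate.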
compound,measurement,setting,value
Cc1c(C(=O)Nc2ccc(N3C[C@@H](C)O[C@@H](C)C3)nc2)cccc1-c1ccc(OC(F)(F)F)cc1 [LDE225],relative viability,621-102 (TSC2-deficient); 0.0001 µM,91.8 ± 6.5%
same,relative viability,621-102 (TSC2-deficient); 0.001 µM,106 ± 2.3%
same,relative viability,621-102 (TSC2-deficient); 0.01 µM,116 ± 3.8%
same,relative viability,621-102 (TSC2-deficient); 0.1 µM,120 ± 0.74%
same,relative viability,621-102 (TSC2-deficient); 1 µM,115 ± 5.7%
same,relative viability,621-102 (TSC2-deficient); 10 µM,81.9 ± 9.2%
same,relative viability,621-103 (TSC2-rescued); 0.0001 µM,92.8 ± 2.8%
same,relative viability,621-103 (TSC2-rescued); 0.001 µM,113 ± 7.7%
same,relative viability,621-103 (TSC2-rescued); 0.01 µM,112 ± 2.8%
same,relative viability,621-103 (TSC2-rescued); 0.1 µM,115.8 ± 0.72%
same,relative viability,621-103 (TSC2-rescued); 1 µM,116 ± 6.1%
same,relative viability,621-103 (TSC2-rescued); 10 µM,54.6 ± 1.5%
CCOC(=O)C1=C(C)NC(C)=C(C(=O)OC)C1c1cccc(Cl)c1Cl (stereo not drawn) [Felodipine],relative viability,621-102 (TSC2-deficient); 0.0001 µM,103 ± 2.2%
same,relative viability,621-102 (TSC2-deficient); 0.001 µM,97.3 ± 5.4%
same,relative viability,621-102 (TSC2-deficient); 0.01 µM,101 ± 4.7%
same,relative viability,621-102 (TSC2-deficient); 0.1 µM,103 ± 1.5%
same,relative viability,621-102 (TSC2-deficient); 1 µM,106 ± 1.6%
same,relative viability,621-102 (TSC2-deficient); 10 µM,117 ± 4.6%
same,relative viability,621-103 (TSC2-rescued); 0.0001 µM,104.4 ± 0.74%
same,relative viability,621-103 (TSC2-rescued); 0.001 µM,100.1 ± 0.68%
same,relative viability,621-103 (TSC2-rescued); 0.01 µM,104 ± 3.1%
same,relative viability,621-103 (TSC2-rescued); 0.1 µM,98.2 ± 1.4%
same,relative viability,621-103 (TSC2-rescued); 1 µM,100 ± 1.6%
same,relative viability,621-103 (TSC2-rescued); 10 µM,106 ± 2.3%
CC(C)C(=O)Oc1ccc(CO)cc1[C@H](CCN(C(C)C)C(C)C)c1ccccc1 [Fesoterodine fumarate (Toviaz)],relative viability,621-102 (TSC2-deficient); 0.0001 µM,97.3 ± 5.3%
same,relative viability,621-102 (TSC2-deficient); 0.001 µM,100.52 ± 0.035%
same,relative viability,621-102 (TSC2-deficient); 0.01 µM,102 ± 1.2%
same,relative viability,621-102 (TSC2-deficient); 0.1 µM,109 ± 3.6%
same,relative viability,621-102 (TSC2-deficient); 1 µM,93.13 ± 0.096%
same,relative viability,621-102 (TSC2-deficient); 10 µM,94.5 ± 1.9%
same,relative viability,621-103 (TSC2-rescued); 0.0001 µM,104 ± 1.1%
same,relative viability,621-103 (TSC2-rescued); 0.001 µM,105 ± 3%
same,relative viability,621-103 (TSC2-rescued); 0.01 µM,106 ± 2.1%
same,relative viability,621-103 (TSC2-rescued); 0.1 µM,107 ± 5.6%
same,relative viability,621-103 (TSC2-rescued); 1 µM,101.2 ± 0.67%
same,relative viability,621-103 (TSC2-rescued); 10 µM,95.413 ± 0.0029%
N=C(N)NC(=N)N1CCOCC1 [Moroxydine],relative viability,621-102 (TSC2-deficient); 0.0001 µM,109 ± 1.8%
same,relative viability,621-102 (TSC2-deficient); 0.001 µM,111 ± 1.4%
same,relative viability,621-102 (TSC2-deficient); 0.01 µM,111 ± 4.4%
same,relative viability,621-102 (TSC2-deficient); 0.1 µM,107 ± 1.3%
same,relative viability,621-102 (TSC2-deficient); 1 µM,109.9 ± 0.84%
same,relative viability,621-102 (TSC2-deficient); 10 µM,99.87 ± 0.55%
same,relative viability,621-103 (TSC2-rescued); 0.0001 µM,87.36 ± 0.38%
same,relative viability,621-103 (TSC2-rescued); 0.001 µM,86.9 ± 5.6%
same,relative viability,621-103 (TSC2-rescued); 0.01 µM,96.1 ± 4.8%
same,relative viability,621-103 (TSC2-rescued); 0.1 µM,92.5 ± 0.95%
same,relative viability,621-103 (TSC2-rescued); 1 µM,92.6 ± 2.9%
same,relative viability,621-103 (TSC2-rescued); 10 µM,86.5 ± 2.3%
Nc1nccc(Oc2ccc(NC(=O)c3c[nH]cc(-c4ccc(F)cc4)c3=O)cc2F)c1Cl,relative viability,621-102 (TSC2-deficient); 0.0001 µM,94 ± 10%
same,relative viability,621-102 (TSC2-deficient); 0.001 µM,118 ± 2.6%
same,relative viability,621-102 (TSC2-deficient); 0.01 µM,111 ± 3.1%
same,relative viability,621-102 (TSC2-deficient); 0.1 µM,103 ± 2.8%
same,relative viability,621-102 (TSC2-deficient); 1 µM,102 ± 2.2%
same,relative viability,621-102 (TSC2-deficient); 10 µM,94.5 ± 1.3%
same,relative viability,621-103 (TSC2-rescued); 0.0001 µM,90.9 ± 6.6%
same,relative viability,621-103 (TSC2-rescued); 0.001 µM,94.6 ± 4.2%
same,relative viability,621-103 (TSC2-rescued); 0.01 µM,102 ± 1.6%
same,relative viability,621-103 (TSC2-rescued); 0.1 µM,104 ± 2%
same,relative viability,621-103 (TSC2-rescued); 1 µM,98.9 ± 1.2%
same,relative viability,621-103 (TSC2-rescued); 10 µM,98.15 ± 0.84%
CNCCC(Oc1ccc(C(F)(F)F)cc1)c1ccccc1 (stereo not drawn) [Fluoxetine HCl],relative viability,621-102 (TSC2-deficient); 0.0001 µM,101.3 ± 0.38%
same,relative viability,621-102 (TSC2-deficient); 0.001 µM,100 ± 1.8%
same,relative viability,621-102 (TSC2-deficient); 0.01 µM,109 ± 2.5%
same,relative viability,621-102 (TSC2-deficient); 0.1 µM,107 ± 2.1%
same,relative viability,621-102 (TSC2-deficient); 1 µM,99.3 ± 1.1%
same,relative viability,621-102 (TSC2-deficient); 10 µM,86.9 ± 2.2%
same,relative viability,621-103 (TSC2-rescued); 0.0001 µM,100 ± 4.3%
same,relative viability,621-103 (TSC2-rescued); 0.001 µM,109 ± 2%
same,relative viability,621-103 (TSC2-rescued); 0.01 µM,106 ± 1.8%
same,relative viability,621-103 (TSC2-rescued); 0.1 µM,99.6 ± 1.9%
same,relative viability,621-103 (TSC2-rescued); 1 µM,104 ± 1.3%
same,relative viability,621-103 (TSC2-rescued); 10 µM,70.9 ± 2%
CN1[C@@H]2CC[C@H]1C[C@@H](OC(=O)c1c[nH]c3ccccc13)C2 [Tropisetron HCl],relative viability,621-102 (TSC2-deficient); 0.0001 µM,82.2 ± 3.4%
same,relative viability,621-102 (TSC2-deficient); 0.001 µM,94 ± 3.9%
same,relative viability,621-102 (TSC2-deficient); 0.01 µM,99.6 ± 3.9%
same,relative viability,621-102 (TSC2-deficient); 0.1 µM,106 ± 2%
same,relative viability,621-102 (TSC2-deficient); 1 µM,99.47 ± 0.15%
same,relative viability,621-102 (TSC2-deficient); 10 µM,93.3 ± 1.3%
same,relative viability,621-103 (TSC2-rescued); 0.0001 µM,89.7 ± 3%
same,relative viability,621-103 (TSC2-rescued); 0.001 µM,96.7 ± 2.6%
same,relative viability,621-103 (TSC2-rescued); 0.01 µM,102 ± 2.4%
same,relative viability,621-103 (TSC2-rescued); 0.1 µM,95.48 ± 0.32%
same,relative viability,621-103 (TSC2-rescued); 1 µM,106.6 ± 0.86%
same,relative viability,621-103 (TSC2-rescued); 10 µM,84.7 ± 1.7%
CN(C)Cc1cccc(N=C(c2ccccc2)c2c(O)[nH]c3cc(C(=O)N(C)C)ccc23)c1,relative viability,621-102 (TSC2-deficient); 0.0001 µM,107 ± 1.5%
same,relative viability,621-102 (TSC2-deficient); 0.001 µM,106 ± 1.2%
same,relative viability,621-102 (TSC2-deficient); 0.01 µM,102 ± 1.4%
same,relative viability,621-102 (TSC2-deficient); 0.1 µM,100.76 ± 0.028%
same,relative viability,621-102 (TSC2-deficient); 1 µM,98.5 ± 6.6%
same,relative viability,621-102 (TSC2-deficient); 10 µM,93.3 ± 1.4%
same,relative viability,621-103 (TSC2-rescued); 0.0001 µM,98.05 ± 0.44%
same,relative viability,621-103 (TSC2-rescued); 0.001 µM,99.6 ± 1.7%
same,relative viability,621-103 (TSC2-rescued); 0.01 µM,98.8 ± 1.2%
same,relative viability,621-103 (TSC2-rescued); 0.1 µM,99.48 ± 0.73%
same,relative viability,621-103 (TSC2-rescued); 1 µM,91.7 ± 5.7%
same,relative viability,621-103 (TSC2-rescued); 10 µM,47.4 ± 2.2%
CC1(C)CNc2cc(NC(=O)c3cccnc3NCc3ccncc3)ccc21 [Motesanib DiPhosphate],relative viability,621-102 (TSC2-deficient); 0.0001 µM,104 ± 1.8%
same,relative viability,621-102 (TSC2-deficient); 0.001 µM,119 ± 1.9%
same,relative viability,621-102 (TSC2-deficient); 0.01 µM,115.2 ± 1.1%
same,relative viability,621-102 (TSC2-deficient); 0.1 µM,110 ± 3%
same,relative viability,621-102 (TSC2-deficient); 1 µM,104 ± 2.7%
same,relative viability,621-102 (TSC2-deficient); 10 µM,107 ± 2%
same,relative viability,621-103 (TSC2-rescued); 0.0001 µM,94.7 ± 3.1%
same,relative viability,621-103 (TSC2-rescued); 0.001 µM,102.6 ± 0.75%
same,relative viability,621-103 (TSC2-rescued); 0.01 µM,102.5 ± 0.75%
same,relative viability,621-103 (TSC2-rescued); 0.1 µM,102 ± 1.3%
same,relative viability,621-103 (TSC2-rescued); 1 µM,93 ± 1.9%
same,relative viability,621-103 (TSC2-rescued); 10 µM,98 ± 1.7%
